Measurements from patent publication US11324774B2, “Compositions of oral alkaline salts and metabolic acid inducers and uses thereof” (Augusta University Research Institute, Inc., priority 2018, dated 2022).

Test system: T-regulatory cells (FOXP3+ T-regs), TH17 cells
Experiment: Circulating T-regulatory and TH17 cells in rats
Assay type: in vivo
Conditions: rats, 4 days in drinking water

For `O=C([O-])CC(O)(CC(=O)[O-])C(=O)[O-].[Na+].[Na+].[Na+]` [Na Citrate], the “circulating anti-inflammatory T cells (FOXP3+ T-regs)” value was “no effect”.
